Measurements taken from article PMC10410440, “Preclinical PK investigation of a novel IDO1/TDO dual inhibitor—SHR9146 in mouse plasma and tissues by LC-MS/MS” (Frontiers in Oncology, 2023).
Read-outs that look alike come from different tables or passages of the source.

Assay: Plasma pharmacokinetics of SHR9146 in mice (LC-MS/MS, non-compartmental analysis)
Assay type: in vivo, ICR mice
Settings: for MRT inf: read-out: MRT0-∞
Experimental: ICR mice with body weight 16–26 g were supplied by Shanghai Lingchang Biotechnology Co., Ltd. (animal breeding license number SCXK (Shanghai) 2013-0018) and housed at Shanghai Institute of Materia Medica, Chinese Academy of Sciences [animal use license number SYXK (Shanghai) 2015-0027]. The mice used in this study were fasted overnight for 12 h but had free access to water. Food was supplied 4 h post-dose. All experiments in this study were conducted in accordance with the Guidelines for the Care and Use of Laboratory Animals of Shanghai Institute of Materia Medica, Chinese Academy of Sciences.
A total of 30 mice were randomly assigned into five groups with equal numbers, males and females. One group was intravenously administrated with 5 mg/kg SHR9146 dissolved in […] plus 95% saline (adjusted pH to 4.0) under sterile conditions. The remaining four groups were administered respectively with a single dose of 20 , 40, or 80 mg/kg or multiple doses of 20 mg/kg twice daily for 7 days, by oral gavage of SHR9146 dissolved in 0.5% CMC-Na. Blood samples were obtained from the fossa orbitalis vein at 15 and 30 min and 1.0, 2.0, 4.0, 6.0, 8.0, 10.0, and 24.0 h after oral gavage administration. An additional 5-min time point was included for iv injection, as well as the pre-drug administration time points on the fifth, sixth, and seventh days in the multiple-dose group. The blood samples were collected in EDTA K2 anticoagulant blood collection tubes and centrifuged at 1,000 rpm for 5 min at 4°C. The supernatant plasma samples were thus produced.
Briefly as follows, an aliquot of 25-μL plasma or tissue homogenate was spiked with 100 μL of internal standard solution (1 μg/mL for plasma, 0.2 μg/mL for tissue homogenate) and 300 μL of methanol added and vortex mixed for 60 s. The mixture was then centrifuged at 14,000 rpm at 4°C for 5.0 min, and the supernatant was diluted with methanol–water (4:1, v/v) in a ratio of 1:9 for the plasma or 1:1 for the tissue homogenate, and 5 μL of the resulting solution was injected for the LC-MS/MS analysis.
The pharmacokinetic parameters of SHR9146 in mouse plasma were estimated by Phoenix 1.4 software using a non-compartmental model.
The mean concentration–time curves of SHR9146 in mouse plasma after a single oral gavage dose of 20, 40, or 80 mg/kg, or a single intravenous dose of 5 mg/kg, or the 7th-day steady state after twice-daily multiple oral doses of 20 mg/kg are shown in Figure 5 (Table S6).

[1] = 20 mg/kg i.g. single dose, all mice (Totol, 3 male + 3 female), plasma
[2] = 20 mg/kg i.g. single dose, female mice, plasma
[3] = 20 mg/kg i.g. single dose, male mice, plasma
[4] = 20 mg/kg oral twice daily for 7 days vs single 20 mg/kg oral dose, mice
[5] = 40 mg/kg i.g. single dose, male mice, plasma
[6] = 80 mg/kg i.g. single dose, all mice (Totol, 3 male + 3 female), plasma
[7] = 80 mg/kg i.g. single dose, female mice, plasma
[8] = 80 mg/kg i.g. single dose, male mice, plasma
[9] = ICR, mouse, iv, 5 mg/kg i.v. single dose, female mice, plasma
[10] = ICR, mouse, iv, 5 mg/kg i.v. single dose, male mice, plasma
[11] = both sexes, ICR, mouse, iv, 5 mg/kg i.v. single dose, all mice (Totol, 3 male + 3 female), plasma
[12] = both sexes, ICR, mouse, plasma, intravenous, 5 mg/kg, 5 mg/kg i.v., read-out: plasma drug concentration, individual mice #1-#6
[13] = both sexes, ICR, mouse, plasma, intravenous, 5 mg/kg, 5 mg/kg i.v., read-out: plasma drug concentration, mean (n=6)
[14] = both sexes, ICR, mouse, plasma, oral, 20 mg/kg, 20 mg/kg i.g. bid, 7 days, 7th day, read-out: plasma drug concentration, individual mice #1-#6
[15] = both sexes, ICR, mouse, plasma, oral, 20 mg/kg, 20 mg/kg i.g. bid, 7 days, 7th day, read-out: plasma drug concentration, mean (n=6)
[16] = both sexes, ICR, mouse, plasma, oral, 20 mg/kg, 20 mg/kg i.g. single, read-out: plasma drug concentration, mean (n=6)
[17] = both sexes, ICR, mouse, plasma, oral, 40 mg/kg, 40 mg/kg i.g. single, read-out: plasma drug concentration, mean (n=6)

OCCn1cc(-c2ccc(N3CCC([C@H]4c5c(F)cccc5-c5cncn54)CC3)cc2)cn1 [SHR9146]
plasma drug concentration, individual mice #1-#6 (5 mg/kg i.v., 4 h): BLQ | plasma drug concentration, individual mice #1-#6 (5 mg/kg i.v., 6 h): BLQ | plasma drug concentration, individual mice #1-#6 (5 mg/kg i.v., 8 h): BLQ | plasma drug concentration, individual mice #1-#6 (5 mg/kg i.v., 10 h): BLQ | plasma drug concentration, individual mice #1-#6 (5 mg/kg i.v., 24 h): BLQ | CL as share of the blood flow of mouse liver (5 mg/kg i.v., liver blood flow around 90 mL/min/kg (ref 23)): 13.3% | Vd as share of the total body fluid of mice (5 mg/kg i.v., total body fluid around 0.725 L/kg (ref 23)): 91.9% | CL (20 mg/kg i.g. bid, 7 days (7th-day steady state), all mice (Totol, 3 male + 3 female), plasma): 13.7 mL/min/kg | CL (20 mg/kg i.g. bid, 7 days (7th-day steady state), female mice, plasma): 13.7 mL/min/kg | CL (20 mg/kg i.g. bid, 7 days (7th-day steady state), male mice, plasma): 13.6 mL/min/kg | plasma drug concentration, individual mice #1-#6 (20 mg/kg i.g. bid, 7 days, 7th day, 0 h): BLQ | plasma drug concentration, individual mice #1-#6 (20 mg/kg i.g. bid, 7 days, 7th day, 8 h): BLQ | plasma drug concentration, individual mice #1-#6 (20 mg/kg i.g. bid, 7 days, 7th day, 10 h): BLQ | plasma drug concentration, individual mice #1-#6 (20 mg/kg i.g. bid, 7 days, 7th day, 24 h): BLQ | plasma drug concentration, individual mice #1-#6 (20 mg/kg i.g. bid, 7 days, Fifth day, pre-drug administration): BLQ | plasma drug concentration, individual mice #1-#6 (20 mg/kg i.g. bid, 7 days, Sixth day, pre-drug administration): BLQ | plasma drug concentration, individual mice #1-#6 (20 mg/kg i.g. single (dose cell empty, taken from the line above), 24 h): BLQ | CL [1]: 20.5 mL/min/kg | Vd [1]: 2.02 L/kg | CL [2]: 18.6 mL/min/kg | Vd [2]: 1.88 L/kg | CL [3]: 22.8 mL/min/kg | Vd [3]: 2.189 L/kg | plasma drug concentration, individual mice #1-#6 (20 mg/kg i.g. single, 4 h): BLQ | plasma drug concentration, individual mice #1-#6 (20 mg/kg i.g. single, 6 h): BLQ | plasma drug concentration, individual mice #1-#6 (20 mg/kg i.g. single, 8 h): BLQ | plasma drug concentration, individual mice #1-#6 (20 mg/kg i.g. single, 10 h): BLQ | steady-state AUC relative to single oral dose [4]: 1.55 fold | steady-state Cmax relative to single oral dose [4]: 1.08 fold | accumulation after multiple oral doses (20 mg/kg oral twice daily for 7 days, mouse plasma): no significant accumulation | CL [5]: 20.0 mL/min/kg | Vd [5]: 3.07 L/kg | plasma drug concentration, individual mice #1-#6 (40 mg/kg i.g. single, 6 h): BLQ | plasma drug concentration, individual mice #1-#6 (40 mg/kg i.g. single, 8 h): BLQ | plasma drug concentration, individual mice #1-#6 (40 mg/kg i.g. single, 10 h): BLQ | plasma drug concentration, individual mice #1-#6 (40 mg/kg i.g. single, 24 h): BLQ | CL [6]: 18.8 mL/min/kg | Vd [6]: 5.19 L/kg | CL [7]: 20.2 mL/min/kg | Vd [7]: 4.00 L/kg | CL [8]: 17.6 mL/min/kg | Vd [8]: 6.22 L/kg | plasma drug concentration, individual mice #1-#6 (80 mg/kg i.g. single, 6 h): BLQ | plasma drug concentration, individual mice #1-#6 (80 mg/kg i.g. single, 8 h): BLQ | plasma drug concentration, individual mice #1-#6 (80 mg/kg i.g. single, 24 h): BLQ | clearance [9]: 12.1 mL/min/kg | MRT inf [9]: 0.882 h | Vd (ICR, mouse, iv, 5 mg/kg i.v. single dose, female mice, plasma, read-out: Vd): 0.638 L/kg | clearance [10]: 12 mL/min/kg | MRT inf [10]: 0.965 h | Vd (ICR, mouse, iv, 5 mg/kg i.v. single dose, male mice, plasma, read-out: Vd): 0.694 L/kg | concentration at 8 h (ICR, mouse, plasma, intravenous, 5 mg/kg, 5 mg/kg i.v., 8 h, read-out: plasma drug concentration, individual mice #1-#6): 149 ng/mL | MRT inf (ICR, mouse, po, 20 mg/kg i.g. single dose, female mice, plasma): 1.68 h | MRT inf (ICR, mouse, po, 20 mg/kg i.g. single dose, male mice, plasma): 1.6 h | MRT inf (ICR, mouse, po, 40 mg/kg i.g. single dose, male mice, plasma): 2.56 h | MRT inf (ICR, mouse, po, 80 mg/kg i.g. single dose, female mice, plasma): 3.29 h | MRT inf (ICR, mouse, po, 80 mg/kg i.g. single dose, male mice, plasma): 5.9 h | clearance [11]: 12 mL/min/kg | MRT inf [11]: 0.923 h | Vd (both sexes, ICR, mouse, iv, 5 mg/kg i.v. single dose, all mice (Totol, 3 male + 3 female), plasma, read-out: Vd): 0.666 L/kg | concentration at 0.083 h [12]: 7880 ng/mL | concentration at 0.083 h [13]: 6860 ng/mL | concentration at 0.25 h [12]: 5210 ng/mL | concentration at 0.25 h [13]: 5230 ng/mL | concentration at 0.5 h [12]: 4530 ng/mL | concentration at 0.5 h [13]: 3610 ng/mL | concentration at 1 h [12]: 2450 ng/mL | concentration at 1 h [13]: 2760 ng/mL | concentration at 2 h [13]: 605 ng/mL | concentration at 4 h (both sexes, ICR, mouse, plasma, intravenous, 5 mg/kg, 5 mg/kg i.v., 4 h, read-out: plasma drug concentration, mean (n=6)): 126 ng/mL | AUC(0-inf) (both sexes, ICR, mouse, plasma, iv, 5 mg/kg, 5 mg/kg i.v. single dose, all mice (Totol, 3 male + 3 female), plasma): 6930 ng·h/mL | AUC(0-t) (both sexes, ICR, mouse, plasma, iv, 5 mg/kg, 5 mg/kg i.v. single dose, all mice (Totol, 3 male + 3 female), plasma, read-out: AUC0-t): 6760 ng·h/mL | half-life (both sexes, ICR, mouse, plasma, iv, 5 mg/kg, 5 mg/kg i.v. single dose, all mice (Totol, 3 male + 3 female), plasma, read-out: t1/2 (converted)): 0.713 h | half-life (both sexes, ICR, mouse, plasma, mice, all doses and routes except the high oral dose (80 mg/kg), read-out: mean terminal half-life in plasma, range): 0.699 to 1.66 h | concentration at 0.25 h [14]: 4300 ng/mL | concentration at 0.25 h [15]: 5710 ng/mL | concentration at 0.5 h [15]: 8020 ng/mL | concentration at 1 h [14]: 9900 ng/mL | concentration at 1 h [15]: 9430 ng/mL | concentration at 2 h [15]: 6170 ng/mL | concentration at 3 h [15]: 3170 ng/mL | concentration at 4 h (both sexes, ICR, mouse, plasma, oral, 20 mg/kg, 20 mg/kg i.g. bid, 7 days, 7th day, 4 h, read-out: plasma drug concentration, mean (n=6)): 1590 ng/mL | concentration at 6 h (both sexes, ICR, mouse, plasma, oral, 20 mg/kg, 20 mg/kg i.g. bid, 7 days, 7th day, 6 h, read-out: plasma drug concentration, mean (n=6)): 453 ng/mL | concentration at 8 h (both sexes, ICR, mouse, plasma, oral, 20 mg/kg, 20 mg/kg i.g. bid, 7 days, 7th day, 8 h, read-out: plasma drug concentration, mean (n=6)): 58 ng/mL | concentration at 10 h (both sexes, ICR, mouse, plasma, oral, 20 mg/kg, 20 mg/kg i.g. bid, 7 days, 7th day, 10 h, read-out: plasma drug concentration, individual mice #1-#6): 58 ng/mL | concentration at 24 h (both sexes, ICR, mouse, plasma, oral, 20 mg/kg, 20 mg/kg i.g. bid, 7 days, 7th day, 24 h, read-out: plasma drug concentration, individual mice #1-#6): 54 ng/mL | concentration at 0.25 h [16]: 7500 ng/mL | concentration at 0.5 h [16]: 8140 ng/mL | concentration at 1 h [16]: 4620 ng/mL | concentration at 2 h [16]: 3980 ng/mL | concentration at 3 h [16]: 2950 ng/mL | concentration at 4 h (both sexes, ICR, mouse, plasma, oral, 20 mg/kg, 20 mg/kg i.g. single, 4 h, read-out: plasma drug concentration, mean (n=6)): 526 ng/mL | concentration at 6 h (both sexes, ICR, mouse, plasma, oral, 20 mg/kg, 20 mg/kg i.g. single, 6 h, read-out: plasma drug concentration, individual mice #1-#6): 242 ng/mL | concentration at 8 h (both sexes, ICR, mouse, plasma, oral, 20 mg/kg, 20 mg/kg i.g. single, 8 h, read-out: plasma drug concentration, individual mice #1-#6): 194 ng/mL | concentration at 0.25 h [17]: 4830 ng/mL | concentration at 0.5 h [17]: 5310 ng/mL
